Here are results for 14 test systems from the supplement of paper PMC8920030.

Common to all, as to settings: growth mode: biofilm, 24 h; exposure time: 24 h
Compound in experiment [1]: T1, CCC(C)CCCC(=O)N[C@@H](CCN)C(=O)N[C@H](C(=O)N[C@@H](CCN)C(=O)N[C@H]1CCNC(=O)[C@H]([C@@H](C)O)NC(=O)[C@H](CCN)NC(=O)[C@H](CCN)NC(=O)[C@H](CC(C)C)NC(=O)[C@@H](CC(C)C)NC(=O)[C@H](CCN)NC1=O)[C@@H](C)O [colistin]
The experiment can be described thus: minimum concentration eradicating biofilm below detection limit (MCK-E); higher = more biofilm tolerance. How it is done:
(§1)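 Clinical P. aeruginosa isolates were grown as static biofilms for 24 h at 37 °C in LB in half-area 96-well plates, then exposed for 24 h to colistin at 1, 4, 16, 64, 256 or […]. Surviving CFU were counted by spotting serial dilutions. MCK is the lowest tested concentration giving the stated log reduction in CFU versus an untreated control; '>1024' means the reduction was not reached at the top dose, and 1 is the lowest dose tested (≤1).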

Compound in experiment [2]: T2, NC[C@H]1O[C@H](O[C@H]2[C@H](O)[C@@H](O[C@H]3O[C@H](CO)[C@@H](O)[C@H](N)[C@H]3O)[C@H](N)C[C@@H]2N)[C@H](N)C[C@@H]1O [tobramycin]
The description is as above. How it is done:
(§2)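 Clinical P. aeruginosa isolates were grown as static biofilms for 24 h at 37 °C in LB in half-area 96-well plates, then exposed for 24 h to tobramycin at 1, 4, 16, 64, 256 or […]. Surviving CFU were counted by spotting serial dilutions. MCK is the lowest tested concentration giving the stated log reduction in CFU versus an untreated control; '>1024' means the reduction was not reached at the top dose, and 1 is the lowest dose tested (≤1).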

Compound in experiment [3]: T1, colistin
The experiment can be described thus: minimum concentration of killing, 1-log CFU reduction of biofilm (MCK90); higher = more biofilm tolerance. How it is done:
as §1

Compound in experiment [4]: T1, colistin
Briefly: minimum concentration of killing, 2-log CFU reduction of biofilm (MCK99); higher = more biofilm tolerance. How it is done: as §1

Compound in experiment [5]: T2, tobramycin
The experiment can be described thus: minimum concentration of killing, 1-log CFU reduction of biofilm (MCK90); higher = more biofilm tolerance. How it is done:
as §2

Compound in experiment [6]: T2, tobramycin
The experiment can be described thus: minimum concentration of killing, 2-log CFU reduction of biofilm (MCK99); higher = more biofilm tolerance. How it is done: as §2

Compound in experiment [7]: T1, colistin
The experiment can be described thus: minimum concentration of killing, 4-log CFU reduction of biofilm (MCK99.99); higher = more biofilm tolerance. On the procedure:
as §1

Compound in experiment [8]: T2, tobramycin
The experiment is described as above. How it is done: as §2

Consider “Pseudomonas aeruginosa clinical isolate ESP021”, for which the entries for the “minimum concentration eradicating biofilm below detection limit” value with colistin [1] and with tobramycin [2] were 256 µg/mL and 64 µg/mL, respectively. For the same test system, the “minimum concentration of killing” value in the experiment with colistin [3] was found to be 16 µg/mL; with colistin [4], 64 µg/mL; with tobramycin [5], 4 µg/mL; with tobramycin [6] it was 4 µg/mL; with colistin [7], 256 µg/mL; in the experiment with tobramycin [8], 64 µg/mL.

Regarding “Pseudomonas aeruginosa clinical isolate ESP038”, the “minimum concentration eradicating biofilm below detection limit” value with colistin [1] was 256 µg/mL; in the experiment with tobramycin [2], 64 µg/mL. The “minimum concentration of killing” value was 64 µg/mL in the experiment with colistin [3]; 64 µg/mL with colistin [4]; at most 1 µg/mL in the experiment with tobramycin [5]; 4 µg/mL with tobramycin [6]; 256 µg/mL in the experiment with colistin [7]; 4 µg/mL in the experiment with tobramycin [8].

Regarding “Pseudomonas aeruginosa clinical isolate F2017”, the “minimum concentration eradicating biofilm below detection limit” value with colistin [1] and with tobramycin [2] was above 1020 µg/mL throughout. Further, the “minimum concentration of killing” value with colistin [3] turned out to be 4 µg/mL; in the experiment with colistin [4], 64 µg/mL; in the experiment with tobramycin [5], 16 µg/mL; with tobramycin [6] it was 256 µg/mL; with colistin [7], 256 µg/mL; with tobramycin [8] it was 256 µg/mL.

Take “Pseudomonas aeruginosa clinical isolate ESP004”: the “minimum concentration eradicating biofilm below detection limit” value in the experiment with colistin [1] was 256 µg/mL; with tobramycin [2], above 1020 µg/mL. Further, the “minimum concentration of killing” value is 64 µg/mL with colistin [3]; 256 µg/mL with colistin [4]; 256 µg/mL with tobramycin [5]; 1020 µg/mL with tobramycin [6]; 256 µg/mL in the experiment with colistin [7]; 1020 µg/mL with tobramycin [8].

Regarding “Pseudomonas aeruginosa clinical isolate ESP035”, the “minimum concentration eradicating biofilm below detection limit” value in the experiment with colistin [1] stood at 256 µg/mL; in the experiment with tobramycin [2], 1020 µg/mL. Also, the “minimum concentration of killing” value with colistin [3] worked out at 64 µg/mL; with colistin [4] it was 256 µg/mL; with tobramycin [5], 256 µg/mL; with tobramycin [6] it was 256 µg/mL; with colistin [7] it was 256 µg/mL; with tobramycin [8], 256 µg/mL.

Take “Pseudomonas aeruginosa clinical isolate ESP055”: the “minimum concentration eradicating biofilm below detection limit” value with colistin [1] worked out at 256 µg/mL; in the experiment with tobramycin [2], 64 µg/mL. Further, the “minimum concentration of killing” value is 64 µg/mL with colistin [3]; 256 µg/mL with colistin [4]; at most 1 µg/mL in the experiment with tobramycin [5]; 16 µg/mL in the experiment with tobramycin [6]; 256 µg/mL with colistin [7]; 16 µg/mL with tobramycin [8].

As to “Pseudomonas aeruginosa clinical isolate ESP059”, the “minimum concentration eradicating biofilm below detection limit” value with colistin [1] and with tobramycin [2] was 256 µg/mL each time. The “minimum concentration of killing” value with colistin [3] is 64 µg/mL; in the experiment with colistin [4] it was 256 µg/mL; with tobramycin [5] it was at most 1 µg/mL; with tobramycin [6], 4 µg/mL; with colistin [7], 256 µg/mL; with tobramycin [8], 256 µg/mL.

With “Pseudomonas aeruginosa clinical isolate ESP001”, the results for the “minimum concentration eradicating biofilm below detection limit” value with colistin [1] and with tobramycin [2] were 256 µg/mL and 1020 µg/mL, respectively. Besides, the “minimum concentration of killing” value is 64 µg/mL in the experiment with colistin [3]; 64 µg/mL in the experiment with colistin [4]; 16 µg/mL with tobramycin [5]; 256 µg/mL in the experiment with tobramycin [6]; 256 µg/mL in the experiment with colistin [7]; 256 µg/mL in the experiment with tobramycin [8].

With “Pseudomonas aeruginosa clinical isolate CH2658”, the “minimum concentration eradicating biofilm below detection limit” value in the experiment with colistin [1] and with tobramycin [2] was 256 µg/mL in each case. For the same test system, the “minimum concentration of killing” value was found to be 64 µg/mL with colistin [3]; 256 µg/mL with colistin [4]; 4 µg/mL with tobramycin [5]; 16 µg/mL in the experiment with tobramycin [6]; 256 µg/mL with colistin [7]; 64 µg/mL with tobramycin [8].

Regarding “Pseudomonas aeruginosa clinical isolate F2005”, the “minimum concentration eradicating biofilm below detection limit” value is 256 µg/mL in the experiment with colistin [1] and 1020 µg/mL in the experiment with tobramycin [2]. Moreover, the “minimum concentration of killing” value was 16 µg/mL with colistin [3]; 256 µg/mL in the experiment with colistin [4]; at most 1 µg/mL in the experiment with tobramycin [5]; 16 µg/mL with tobramycin [6]; 256 µg/mL with colistin [7]; 16 µg/mL with tobramycin [8].

Turning to “Pseudomonas aeruginosa clinical isolate CH5550”, the entries for the “minimum concentration eradicating biofilm below detection limit” value with colistin [1] and with tobramycin [2] were above 1020 µg/mL and 1020 µg/mL, respectively. Further, the “minimum concentration of killing” value with colistin [3] was 256 µg/mL; in the experiment with colistin [4], 256 µg/mL; with tobramycin [5] it was 16 µg/mL; with tobramycin [6], 16 µg/mL; with colistin [7] it was above 1020 µg/mL; in the experiment with tobramycin [8], 1020 µg/mL.

For the test system “Pseudomonas aeruginosa clinical isolate CH2598”, the “minimum concentration eradicating biofilm below detection limit” value with colistin [1] and with tobramycin [2] was 256 µg/mL each time. For the same test system, the “minimum concentration of killing” value with colistin [3] was 256 µg/mL; with colistin [4] it was 256 µg/mL; with tobramycin [5], 4 µg/mL; with tobramycin [6], 16 µg/mL; with colistin [7], 256 µg/mL; with tobramycin [8], 256 µg/mL.

Consider “Pseudomonas aeruginosa clinical isolate F1727”, for which the figures for the “minimum concentration eradicating biofilm below detection limit” value in the experiment with colistin [1] and with tobramycin [2] were 256 µg/mL and 1020 µg/mL, respectively. The “minimum concentration of killing” value in the experiment with colistin [3] was 256 µg/mL; in the experiment with colistin [4], 256 µg/mL; in the experiment with tobramycin [5], 4 µg/mL; with tobramycin [6] it was 4 µg/mL; with colistin [7], 256 µg/mL; in the experiment with tobramycin [8], 1020 µg/mL.

With “Pseudomonas aeruginosa clinical isolate CH5638”, the “minimum concentration eradicating biofilm below detection limit” value with colistin [1] was 256 µg/mL; with tobramycin [2], 1020 µg/mL. Besides, the “minimum concentration of killing” value stood at 64 µg/mL in the experiment with colistin [3]; 256 µg/mL in the experiment with colistin [4]; 16 µg/mL in the experiment with tobramycin [5]; 16 µg/mL with tobramycin [6]; 256 µg/mL in the experiment with colistin [7]; 1020 µg/mL with tobramycin [8].
